According to US12528832B2, “Crystalline or amorphous form of Bcl-2/Bcl-xL inhibitor compound or its salts” (ASCENTAGE PHARMA (SUZHOU) CO., LTD., priority 2020, dated 2026):
Counter-ions that a name gives are not always drawn.

Experiments:
[1] = Hygroscopicity test, dynamic water adsorption (DVS); type: physicochemical
Method: Take about 10 mg of the Amorphous form XIV sample of the compound of formula I for dynamic water adsorption (DVS) test.

[2] = Stability test of amorphous form XIV (40° C., high humidity 92.5% RH, light; content, related substances); type: physicochemical
Method: Pack the amorphous sample with nitrogen, shading, and moisture-proof, and place it under 40° C., high humidity 92.5% RH, light conditions, and take samples at 0 days/5 days/10 days to investigate its content, related substances and crystal forms (light conditions: total illuminance≥1.2×106 Lux·hr, near ultraviolet energy≥200 w·hr/m2).

[3] = Stability test of salt form screening (25° C., R.T./75% RH, light; HPLC, XRPD); type: physicochemical
Method: Take an appropriate amount of the compound into an 8 mL glass bottle, and then place it at room temperature (25° C., open), high humidity (room temperature/75% RH, open) and light (room temperature, white light: 6980 lux, UV 282 μW/cm2). Take samples for testing on the 5th, 10th, and 30th day (HPLC, XRPD).

[4] = Physicochemical stability of crystalline form VI, one week storage (HPLC purity, XRPD form)
[5] = 10 Days, high humidity 92.5% RH
[6] = Light, room temperature, 5 Days
[7] = Light, room temperature, 10 Days

| SMILES | Total impurities (%) ([3]; 25° C., open, 5 Days) | Total impurities (%) ([3]; 25° C., open, 10 Days) | Total impurities (%) ([3]; 25° C., open, 30 Days) | Total impurities (%) ([3]; Initial, 0 Days) | Total impurities (%) [3, 6] [%] | Total impurities (%) [3, 7] [%] | Total impurities (%) ([3]; R.T./75% RH, open, 5 Days) | Total impurities (%) ([3]; R.T./75% RH, open, 10 Days) | Total impurities (%) ([3]; R.T./75% RH, open, 30 Days) | also measured |
| --- | --- | --- | --- | --- | --- | --- | --- | --- | --- | --- |
| Cc1c(S(C)(=O)=O)c(-c2cc(F)cc(N3CCN(c4ccc(NS(=O)(=O)c5ccc(N[C@H](CCN6CCC(C(=O)OCCCP(=O)(O)O)CC6)CSc6ccccc6)c(S(=O)(=O)C(F)(F)F)c5)cc4)CC3)c2)c(-c2ccc(Cl)cc2)n1C(C)C [Amorphous XIV] |  |  |  |  |  |  |  |  |  | Hygroscopicity classification ([1]; DVS, 80% RH): Hygroscopic; Moisture gain (80% RH) ([1]; DVS, 80% RH): 4.83%; water absorption during storage ([1]; conclusion from DVS): easily absorb water; physical and chemical stability (summary statement) [2]: good physical and chemical stability; Content(%) ([2]; 0 Days): 99.5%; Total impurities (%) ([2]; 0 Days): 0.39%; Content(%) ([2]; 5 Days, 40° C.): 100.3%; Total impurities (%) ([2]; 5 Days, 40° C.): 0.59%; Content(%) ([2]; 5 Days, high humidity 92.5% RH): 100.7%; Total impurities (%) ([2]; 5 Days, high humidity 92.5% RH): 0.37%; Content(%) ([2]; 5 Days, light): 100.4%; Total impurities (%) ([2]; 5 Days, light): 0.43%; Content(%) ([2]; 10 Days, 40° C.): 99.7%; Total impurities (%) ([2]; 10 Days, 40° C.): 0.64%; Content(%) [2, 5]: 99.7%; Total impurities (%) [2, 5]: 0.39%; Content(%) ([2]; 10 Days, light): 100.1%; Total impurities (%) ([2]; 10 Days, light): 0.41%; stability under high humidity and light conditions ([2]; packed with nitrogen, shading, moisture-proof): stable; stability to heat ([2]; packed with nitrogen, shading, moisture-proof, 40° C.): sensitive to heat |
| Cc1c(S(C)(=O)=O)c(-c2cc(F)cc(N3CCN(c4ccc(NS(=O)(=O)c5ccc(N[C@H](CCN6CCC(C(=O)OCCCP(=O)(O)O)CC6)CSc6ccccc6)c(S(=O)(=O)C(F)(F)F)c5)cc4)CC3)c2)c(-c2ccc(Cl)cc2)n1C(C)C [Amorphous form XII of potassium salt] | 1.63 | 1.58 | 1.86 | 1.40 | 2.09 | 2.69 | 2.25 | 2.98 | 6.11 |  |
| Cc1c(S(C)(=O)=O)c(-c2cc(F)cc(N3CCN(c4ccc(NS(=O)(=O)c5ccc(N[C@H](CCN6CCC(C(=O)OCCCP(=O)(O)O)CC6)CSc6ccccc6)c(S(=O)(=O)C(F)(F)F)c5)cc4)CC3)c2)c(-c2ccc(Cl)cc2)n1C(C)C [Amorphous form XIII of sodium salt] | 1.89 | 1.94 | 2.29 | 1.65 | 2.20 | 3.55 | 2.45 | 3.08 | 6.31 |  |
| Cc1c(S(C)(=O)=O)c(-c2cc(F)cc(N3CCN(c4ccc(NS(=O)(=O)c5ccc(N[C@H](CCN6CCC(C(=O)OCCCP(=O)(O)O)CC6)CSc6ccccc6)c(S(=O)(=O)C(F)(F)F)c5)cc4)CC3)c2)c(-c2ccc(Cl)cc2)n1C(C)C [Amorphous form XV of maleate salt] | 0.79 | 0.89 | 1.23 | 0.73 | 1.33 | 1.94 | 1.59 | 2.59 | 7.00 |  |
| Cc1c(S(C)(=O)=O)c(-c2cc(F)cc(N3CCN(c4ccc(NS(=O)(=O)c5ccc(N[C@H](CCN6CCC(C(=O)OCCCP(=O)(O)O)CC6)CSc6ccccc6)c(S(=O)(=O)C(F)(F)F)c5)cc4)CC3)c2)c(-c2ccc(Cl)cc2)n1C(C)C [Amorphous form XVI of meglumine salt] | 0.95 | 0.89 | 0.88 | 0.83 | 1.33 | 1.74 | 1.36 | 1.86 | 4.95 | physical and chemical stability (summary statement) [3]: good physical and chemical stability |
| Cc1c(S(C)(=O)=O)c(-c2cc(F)cc(N3CCN(c4ccc(NS(=O)(=O)c5ccc(N[C@H](CCN6CCC(C(=O)OCCCP(=O)(O)O)CC6)CSc6ccccc6)c(S(=O)(=O)C(F)(F)F)c5)cc4)CC3)c2)c(-c2ccc(Cl)cc2)n1C(C)C [Crystal form VI] |  |  |  |  |  |  |  |  |  | physical and chemical stability (summary statement) [4]: good physical and chemical stability; change of purity and crystal form ([4]; 25° C./60% RH and 40° C./75% RH for one week): did not change significantly; HPLC purity (Peak area %) ([4]; 25° C./60% RH, one week): 99.01 Peak area %; Solid crystal form ([4]; 25° C./60% RH, one week): Crystal form VI; HPLC purity (Peak area %) ([4]; 40° C./75% RH, one week): 99.06 Peak area %; Solid crystal form ([4]; 40° C./75% RH, one week): Crystal form VI; HPLC purity (Peak area %) ([4]; Initial sample): 99.02 Peak area %; Solid crystal form ([4]; Initial sample): Crystal form VI |
